Laboratory results: ChEMBL document CHEMBL3621049, “Imidazole derivatives show anticancer potential by inducing apoptosis and cellular senescence” (2014)
Calls of active or inactive are those of the source. The rule behind the calls is not given here.

Legend:
UO-31 = experiment: Growth inhibition of human UO31 cells at 10 uM by sulforhodamine B assay; type: functional, cell-based
K562 = experiment: Growth inhibition of human K562 cells at 10 uM by sulforhodamine B assay; type: functional, cell-based
A549 [1] = experiment: Cell cycle arrest in human A549 cells assessed as accumulation at G0/G1 phase at 20 uM after 48 hrs using propidium iodide staining by flow cytometer analysis (reference value: 79.34%); type: functional
NCI-H226 = experiment: Growth inhibition of human NCI-H226 cells at 10 uM by sulforhodamine B assay; type: functional, cell-based
A549 [2] = experiment: Cell cycle arrest in human A549 cells assessed as accumulation at G0/G1 phase at 5 uM after 48 hrs using propidium iodide staining by flow cytometer analysis (reference value: 79.34%); type: functional
SK-OV-3 = experiment: Growth inhibition of human SKOV3 cells at 10 uM by sulforhodamine B assay; type: functional, cell-based
HCT-116 = experiment: Growth inhibition of human HCT116 cells at 10 uM by sulforhodamine B assay; type: functional, cell-based
ACHN = experiment: Growth inhibition of human ACHN cells at 10 uM by sulforhodamine B assay; type: functional, cell-based
MCF7 = experiment: Growth inhibition of human MCF7 cells at 10 uM by sulforhodamine B assay; type: functional, cell-based
M14 = experiment: Growth inhibition of human M14 cells at 10 uM by sulforhodamine B assay; type: functional, cell-based
PC-3 = experiment: Growth inhibition of human PC3 cells at 10 uM by sulforhodamine B assay; type: functional, cell-based
SW-620 = experiment: Growth inhibition of human SW620 cells at 10 uM by sulforhodamine B assay; type: functional, cell-based
OVCAR-8 = experiment: Growth inhibition of human OVCAR8 cells at 10 uM by sulforhodamine B assay; type: functional, cell-based
A549 [3] = experiment: Cell cycle arrest in human A549 cells assessed as accumulation at S phase at 20 uM after 48 hrs using propidium iodide staining by flow cytometer analysis (reference value: 6.67%); type: functional
A549 [4] = experiment: Inhibition of colony formation in human A549 cells after 14 days using crystal violet staining by soft agar assay; type: functional, cell-based
A549 [5] = experiment: Cell cycle arrest in human A549 cells assessed as accumulation at sub-G1 phase at 20 uM after 48 hrs using propidium iodide staining by flow cytometer analysis (reference value: 0.96%); type: functional
MDA-MB-435 = experiment: Growth inhibition of human MDA-MB-435 cells at 10 uM by sulforhodamine B assay; type: functional, cell-based
NCI-H322M = experiment: Growth inhibition of human NCI-H322M cells at 10 uM by sulforhodamine B assay; type: functional, cell-based
IGROV-1 = experiment: Growth inhibition of human IGROV1 cells at 10 uM by sulforhodamine B assay; type: functional, cell-based
SNB-75 = experiment: Growth inhibition of human SNB75 cells at 10 uM by sulforhodamine B assay; type: functional, cell-based
LOX IMVI = experiment: Growth inhibition of human LOXIMVI cells at 10 uM by sulforhodamine B assay; type: functional, cell-based
HL-60(TB) = experiment: Growth inhibition of human HL-60(TB) cells at 10 uM by sulforhodamine B assay; type: functional, cell-based
HT-29 = experiment: Growth inhibition of human HT-29 cells at 10 uM by sulforhodamine B assay; type: functional, cell-based
A549 [6] = experiment: Cell cycle arrest in human A549 cells assessed as accumulation at G2/M phase at 20 uM after 48 hrs using propidium iodide staining by flow cytometer analysis (reference value: 13.02%); type: functional
A549 [7] = experiment: Induction of cellular senescence in human A549 cells assessed as increase of endogenous level of beta-galactosidase by […]/X-gal staining; type: functional, cell-based
RXF 393 = experiment: Growth inhibition of human RXF393 cells at 10 uM by sulforhodamine B assay; type: functional, cell-based
MOLT-4 = experiment: Growth inhibition of human MOLT4 cells at 10 uM by sulforhodamine B assay; type: functional, cell-based
SF-539 = experiment: Growth inhibition of human SF539 cells at 10 uM by sulforhodamine B assay; type: functional, cell-based
RPMI-8226 = experiment: Growth inhibition of human RPMI8226 cells at 10 uM by sulforhodamine B assay; type: functional, cell-based
HOP-92 = experiment: Growth inhibition of human HOP92 cells at 10 uM by sulforhodamine B assay; type: functional, cell-based
OVCAR-4 = experiment: Growth inhibition of human OVCAR4 cells at 10 uM by sulforhodamine B assay; type: functional, cell-based
SNB-19 = experiment: Growth inhibition of human SNB19 cells at 10 uM by sulforhodamine B assay; type: functional, cell-based
OVCAR-3 = experiment: Growth inhibition of human OVCAR3 cells at 10 uM by sulforhodamine B assay; type: functional, cell-based
HOP-62 = experiment: Growth inhibition of human HOP62 cells at 10 uM by sulforhodamine B assay; type: functional, cell-based
SR = experiment: Growth inhibition of human SR cells at 10 uM by sulforhodamine B assay; type: functional, cell-based
UACC-257 = experiment: Growth inhibition of human UACC257 cells at 10 uM by sulforhodamine B assay; type: functional, cell-based
T47D = experiment: Growth inhibition of human T47D cells at 10 uM by sulforhodamine B assay; type: functional, cell-based
SN12C = experiment: Growth inhibition of human SN12C cells at 10 uM by sulforhodamine B assay; type: functional, cell-based
A549 [8] = experiment: Cell cycle arrest in human A549 cells assessed as accumulation at sub-G1 phase at 10 uM after 48 hrs using propidium iodide staining by flow cytometer analysis (reference value: 0.96%); type: functional
TK-10 = experiment: Growth inhibition of human TK10 cells at 10 uM by sulforhodamine B assay; type: functional, cell-based
CAKI-1 = experiment: Growth inhibition of human Caki1 cells at 10 uM by sulforhodamine B assay; type: functional, cell-based
Malme-3M = experiment: Growth inhibition of human MALME-3M cells at 10 uM by sulforhodamine B assay; type: functional, cell-based
A549 [9] = experiment: Cell cycle arrest in human A549 cells assessed as accumulation at G2/M phase at 10 uM after 48 hrs using propidium iodide staining by flow cytometer analysis (reference value: 13.02%); type: functional
OVCAR-5 = experiment: Growth inhibition of human OVCAR5 cells at 10 uM by sulforhodamine B assay; type: functional, cell-based
NCI-H460 = experiment: Growth inhibition of human NCI-H460 cells at 10 uM by sulforhodamine B assay; type: functional, cell-based
Hs-578T = experiment: Growth inhibition of human Hs 578T cells at 10 uM by sulforhodamine B assay; type: functional, cell-based
NCI/ADR-RES = experiment: Growth inhibition of human NCI/ADR-RES cells at 10 uM by sulforhodamine B assay; type: functional, cell-based
A498 = experiment: Growth inhibition of human A498 cells at 10 uM by sulforhodamine B assay; type: functional, cell-based
HCT-15 = experiment: Growth inhibition of human HCT15 cells at 10 uM by sulforhodamine B assay; type: functional, cell-based
MDA-MB-231 = experiment: Growth inhibition of human MDA-MB-231 cells at 10 uM by sulforhodamine B assay; type: functional, cell-based
BT-549 = experiment: Growth inhibition of human BT549 cells at 10 uM by sulforhodamine B assay; type: functional, cell-based

## COc1ccc(-c2nc(-c3ccccn3)c(-c3ccccn3)n2CC(C)C)cc1OC1CCCC1
UO-31
  growth inhibition (GI): Active
K562
  growth inhibition (GI): Active
A549 [1]
  Activity: 69.52%
NCI-H226
  growth inhibition (GI): Active
A549 [2]
  Activity: 89.38%
SK-OV-3
  growth inhibition (GI): Active
HCT-116
  growth inhibition (GI): Active
ACHN
  growth inhibition (GI): Active
MCF7
  growth inhibition (GI): Active
M14
  growth inhibition (GI): Active
PC-3
  growth inhibition (GI): Active
SW-620
  growth inhibition (GI): Active
OVCAR-8
  growth inhibition (GI): Active
A549 [3]
  Activity: 6.63%
A549 [4]
  inhibition: Dose-dependent effect
A549 [5]
  Activity: 19.34%
MDA-MB-435
  growth inhibition (GI): Active
NCI-H322M
  growth inhibition (GI): Active
IGROV-1
  growth inhibition (GI): Active
SNB-75
  growth inhibition (GI): Active
LOX IMVI
  growth inhibition (GI): Active
HL-60(TB)
  growth inhibition (GI): Active
HT-29
  growth inhibition (GI): Active
A549 [6]
  Activity: 4.51%
A549 [7]
  Activity: Dose-dependent effect
RXF 393
  growth inhibition (GI): Active
MOLT-4
  growth inhibition (GI): Active
SF-539
  growth inhibition (GI): Active
RPMI-8226
  growth inhibition (GI): Active
HOP-92
  growth inhibition (GI): Active
OVCAR-4
  growth inhibition (GI): Active
SNB-19
  growth inhibition (GI): Active
OVCAR-3
  growth inhibition (GI): Active
HOP-62
  growth inhibition (GI): Active
SR
  growth inhibition (GI): Active
UACC-257
  growth inhibition (GI): Active
T47D
  growth inhibition (GI): Active
SN12C
  growth inhibition (GI): Active
A549 [8]
  Activity: 7.63%
TK-10
  growth inhibition (GI): Active
CAKI-1
  growth inhibition (GI): Active
Malme-3M
  growth inhibition (GI): Active
A549 [9]
  Activity: 6.73%
OVCAR-5
  growth inhibition (GI): Active
NCI-H460
  growth inhibition (GI): Active
Hs-578T
  growth inhibition (GI): Active
NCI/ADR-RES
  growth inhibition (GI): Active
A498
  growth inhibition (GI): Active
HCT-15
  growth inhibition (GI): Active
MDA-MB-231
  growth inhibition (GI): Active
BT-549
  growth inhibition (GI): Active
